Literature values in patent US9669099B2, “Pine bark extract and black pepper essential oil with anti-inflammatory and anti-arthritic action and method of preparing same” (priority 2015, dated 2017).

Tests used:
leukotriene production = settings: leukotriene as a mediator of inflammation
[1] = test system: TNF-α (Tumor Necrosis Factor alpha); settings: fibroblast cultures, all animals assessed

Row | Structure (SMILES) | inhibitor of leukotriene production (leukotriene production) | also measured
1 | C=CC(C)(O)CCC=C(C)C (racemic) [(±)-linalool] | effective as an inhibitor | 
2 | CC1=C[C@@H](O)[C@@H]2C[C@H]1C2(C)C (relative stereo) [(+)-cis-verbenol] | effective as an inhibitor | 
3 | C=C(C)C1CC=C(C)CC1 (single isomer, unassigned; (+)) [(+)-limonene] | effective as an inhibitor | 
4 | CC1CCC(C(C)C)C(O)C1 (single isomer, unassigned; (-)) [(−)-menthol] | effective as an inhibitor | 
5 | CC1=CC[C@@H]2C[C@H]1C2(C)C [(+)-α-pinene] | effective as an inhibitor | 
6 | CC1=CC[C@H]2C[C@@H]1C2(C)C [(−)-α-pinene] | effective as an inhibitor | 
7 | C/C1=C\CC/C(C)=C/CC(C)(C)/C=C/C1 [Alpha-humulene] |  | prevention of production of proinflammatory cytokines TNF-a and IL-1b (TNF-a and IL-1b): ability to prevent; inhibition of LPS-induced NF-kB activation (NF-kB activation): inhibit; inhibition of LPS-induced neutrophil migration (neutrophil migration): inhibit; prevention of in vivo up-regulation of kinin B1 receptors (kinin B1 receptors): ability to prevent
8 | C=C1CC/C=C(\C)CC[C@@H]2[C@@H]1CC2(C)C [Beta-caryophyllene] |  | inhibition of LPS-induced NF-kB activation (NF-kB activation): inhibit; inhibition of LPS-induced neutrophil migration (neutrophil migration): inhibit
9 | CC(C)=CCCC(C)=CC=O [citral] | effective as an inhibitor | 
10 | CC(C)=CCC/C(C)=C/CO [geraniol] | effective as an inhibitor | 
11 | C=C(C)[C@H]1CC=C(C)CC1 [limonene] |  | inhibition of TNF-α [1]: inhibition of TNF-α
12 | CC1=CCCC(C)(C)C1C=O (stereo not drawn) [α-cyclocitral] | effective as an inhibitor | 
13 | CC1=CC=C(C(C)C)CC1 [α-terpinene] | effective as an inhibitor | 
14 | C=CC(=C)CCC=C(C)C [β-myrcene] | effective as an inhibitor | 
15 | CC1=CCC(C(C)C)=CC1 [γ-terpinene] | effective as an inhibitor | 
